Experimental data published in patent US6818649B2, “Chromenylmethyl pyrimidinediamines as antibacterial agents” (Basilea Pharmaceutica AG, priority 2000, dated 2004).
In brackets after ≈: the same amount, converted by molar mass.

Experiments:
[1] = system: Staphylococcus aureus 101, MRSA and Trimethoprim-resistant; clinical isolate; test: MIC against Staphylococcus aureus 101; format: cell-based; conditions: read-out: MIC Sa101
Method: (§1) The following Table contains inhibitory concentrations determined in the above test for representative members of the class of compound defined by formula I. The following microorganisms were tested: […]
Col. 2: MIC Sa101; μg/ml (Staphylococcus aureus 101, MRSA^*)— and Trimethoprim-resistant; clinical isolate, stored at −80° C.)
^*) MRSA=Methicillin Resistant Staphylococcus Aureus

[2] = system: Streptococcus pneumoniae 1/1, Trimethoprim- and Penicillin-resistant, Serotype 6; clinical isolate; test: MIC against Streptococcus pneumoniae 1/1; format: cell-based; conditions: read-out: MIC Spn1/1
Method: as §1
Col. 1: MIC Spn1/1; μg/ml (Streptococcus pneumoniae 1/1, Trimethoprim- and Penicillin-resistant, Serotype 6; clinical isolate, stored at −80° C.)
Lit.: H. Locher et al., Can. J. Infect. Dis.6: Suppl. C, p 469C.

[3] = biological target: T1, purified DHFR of strain Sp1/1 of Streptococcus pneumoniae (Streptococcus pneumoniae, UniProt Q54801); conditions: read-out: DHFR Spn1/1 (IC50); purified DHFR of S. pneumoniae strain Spn1/1; IC50 determined graphically
T1 sequence (Q54801 1-168): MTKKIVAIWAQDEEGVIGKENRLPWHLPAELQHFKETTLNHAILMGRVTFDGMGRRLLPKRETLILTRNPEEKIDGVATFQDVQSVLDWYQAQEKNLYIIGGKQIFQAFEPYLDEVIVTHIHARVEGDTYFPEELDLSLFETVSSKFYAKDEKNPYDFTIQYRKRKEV
Description: 3: DHFR Spn1/1; μM—the IC50-values in μM against the purified DHFR of the above strain Sp1/1 of Streptococcus pneumoniae.

[4] = biological target: purified DHFR of the strain 157/4696 (highly trimethoprim-resistant; clinical isolate) of Staphylococcus aureus (Staphylococcus aureus, UniProt P13955); test: biochemical
Description: The inhibition of the enzyme was taken as a measurement for the antibacterial activity.

Structure (SMILES) | MIC [1] | melting point | MIC [2] | IC50 [3] | IC50 [4]
COc1cc(Cc2cnc(N)nc2N)cc2c1OC(C)(C)C=C2Cl [Example 6, 5-(4-Chloro-8-methoxy-2,2-dimethyl-2H-chromen-6-ylmethyl)-pyrimidine-2,4-diamine] | 1 mg/L (≈ 2.88 µM) | 221 to 222 °C | 4 mg/L (≈ 11.5 µM) | 0.11 µM | 0.38 µM
CCOc1cc(Cc2cnc(N)nc2N)cc2c1OC(C)(C)C=C2C [Example 8, 5-(8-Ethoxy-2,2,4-trimethyl-2H-chromen-6-ylmethyl)-pyrimidine-2,4-diamine] | 4 mg/L (≈ 11.7 µM) | 216 to 218 °C | 2 mg/L (≈ 5.87 µM) | 0.015 µM | 1.3 µM
COCC#CC1=CC(C)(C)Oc2c(OC)cc(Cc3cnc(N)nc3N)cc21 [Example 16, 5-[8-Methoxy-4-(3-methoxy-prop-1-ynyl)-2,2-dimethyl-2H-chromen-6-ylmethyl]-pyrimidine-2,4-diamine] | 4 mg/L (≈ 10.5 µM) | 236 to 237 °C | > 8 mg/L | 0.68 µM | 0.22 µM
CCOc1cc(Cc2cnc(N)nc2N)cc2c1OC(C)(C)C=C2CC [Example 9, 5-(8-Ethoxy-4-ethyl-2,2-dimethyl-2H-chromen-6-ylmethyl)-pyrimidine-2,4-diamine] | 4 mg/L (≈ 11.3 µM) | 222 to 225 °C (dec.) | 1 mg/L (≈ 2.82 µM) | 0.012 µM | 0.67 µM
CCOc1cc(Cc2cnc(N)nc2N)cc2c1OC1(C=C2Br)CCC1 [Example 30, 5-[(4-Bromo-8-ethoxyspiro[2H-1-benzopyran-2,1′-cyclobutan]-6-yl)methyl]-2,4-pyrimidinediamine] | 2 mg/L (≈ 4.79 µM) | 213 to 214 °C | 4 mg/L (≈ 9.59 µM) | 0.0089 µM | 0.21 µM
